Measured values: ChEMBL document CHEMBL5715954, “Silencing c-Myc translation as a therapeutic strategy through targeting PI3Kδ and CK1ε in hematological malignancies” (Blood, 2017)
pEC50: −log10 of the molar value. Active and inactive are the calls of the source. The rule behind the calls is not given here.

What was measured:
[1] = biological target: T1, Casein kinase I isoform epsilon (Homo sapiens, UniProt P49674); assay: Inhibition of recombinant human full-length N-terminal GST-tagged CK1epsilon expressed in baculovirus infected Sf9 insect cells using casein as substrate measured after 60 mins by ADP-glo kinase assay
Target sequence in this assay (P49674 whole entry, canonical isoform): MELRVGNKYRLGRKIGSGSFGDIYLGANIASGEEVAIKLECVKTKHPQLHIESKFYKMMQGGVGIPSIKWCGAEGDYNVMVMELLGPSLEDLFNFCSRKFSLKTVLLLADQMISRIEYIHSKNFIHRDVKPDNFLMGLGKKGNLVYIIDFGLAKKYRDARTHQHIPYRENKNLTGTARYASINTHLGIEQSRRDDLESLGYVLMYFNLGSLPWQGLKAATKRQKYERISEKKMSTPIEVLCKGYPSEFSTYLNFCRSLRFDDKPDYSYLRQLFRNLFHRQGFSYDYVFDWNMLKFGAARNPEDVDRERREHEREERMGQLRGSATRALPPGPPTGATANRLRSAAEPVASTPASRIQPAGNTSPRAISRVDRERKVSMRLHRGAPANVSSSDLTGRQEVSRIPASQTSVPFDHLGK

[2] = biological target: T1, Casein kinase I isoform epsilon; assay: Inhibition of CK1epsilon in human LY7 cells assessed as reduction in CK1epsilon autophosphorylation at 1 uM preincubated for 1 hr followed by addition of PP2A inhibitor calyculin A and measured after 15 to 60 mins by Western blot analysis; format: cell-based; conditions: time lower 75.0 min, time upper […]
Target sequence in this assay (P49674 whole entry, looked up, canonical isoform): as the sequence (P49674 whole entry, canonical isoform) above

[3] = biological target: T1, Casein kinase I isoform epsilon; assay: Inhibition of CK1epsilon in human LY7 cells assessed as reduction in c-Myc expression at 15 to 50 uM measured after 24 hrs by Western blot analysis; format: cell-based; conditions: dose 15-50 µM
Target sequence in this assay (P49674 whole entry, looked up, canonical isoform): as the sequence (P49674 whole entry, canonical isoform) above

[4] = biological target: T1, Casein kinase I isoform epsilon; assay: Inhibition of CK1epsilon in human OCILY7 cells transfected with c-myc-5'-UTR-luciferase construct assessed as reduction in c-myc translation at 15 uM incubated for 24 hrs by luciferase reporter gene assay; format: cell-based
Target sequence in this assay (P49674 whole entry, looked up, canonical isoform): as the sequence (P49674 whole entry, canonical isoform) above

[5] = biological target: T1, Casein kinase I isoform epsilon; assay: Inhibition of CK1epsilon in human LY7 cells assessed as reduction in 4E-BP1 phosphorylation at 25 uM incubated for 24 hrs in presence of […] inhibitor PF4800567 by Western blot analysis; format: cell-based
Target sequence in this assay (P49674 whole entry, looked up, canonical isoform): as the sequence (P49674 whole entry, canonical isoform) above

[6] = biological target: T1, Casein kinase I isoform epsilon; assay: Inhibition of CK1epsilon in human LY7 cells assessed as reduction in c-Myc expression at 25 uM incubated for 24 hrs in presence of […] inhibitor PF4800567 by Western blot analysis; format: cell-based
Target sequence in this assay (P49674 whole entry, looked up, canonical isoform): as the sequence (P49674 whole entry, canonical isoform) above

[7] = biological target: Serine/threonine-protein phosphatase 2A catalytic subunit alpha isoform (Homo sapiens) (UniProt P67775); assay: Inhibition of PP2A in human LY7 cells assessed as increase in CK1epsilon autophosphorylation by Western blot analysis; format: cell-based; conditions: time lower […], time upper 30.0 min
[8] = biological target: Myc proto-oncogene protein (Homo sapiens) (UniProt P01106); assay: Inhibition of c-Myc in human LY10 cells assessed as reduction in eIF4B expression at 2 nM incubated for 24 hrs by Western blot analysis; format: cell-based
[9] = biological target: Myc proto-oncogene protein (Homo sapiens) (UniProt P01106); assay: Inhibition of c-Myc in human LY7 cells assessed as reduction in eIF4B expression at 5 nM incubated for 24 hrs by Western blot analysis; format: cell-based
[10] = biological target: Myc proto-oncogene protein (Homo sapiens) (UniProt P01106); assay: Inhibition of c-Myc in human LY10 cells assessed as reduction in E2F1 expression at 2 nM incubated for 24 hrs by Western blot analysis; format: cell-based
[11] = biological target: Myc proto-oncogene protein (Homo sapiens) (UniProt P01106); assay: Inhibition of c-Myc in human LY7 cells assessed as reduction in E2F1 expression at 5 nM incubated for 24 hrs by Western blot analysis; format: cell-based
[12] = biological target: T1, Casein kinase I isoform epsilon; assay: Inhibition of CK1epsilon in human LY7 cells assessed as reduction in CK1epsilon autophosphorylation at 10 to 25 uM preincubated for 1 hr followed by addition of PP2A inhibitor calyculin A and measured after 15 to 60 mins by Western blot analysis; format: cell-based; conditions: dose 10-25 µM, time lower 75.0 min, time upper […]
Target sequence in this assay (P49674 whole entry, looked up, canonical isoform): as the sequence (P49674 whole entry, canonical isoform) above

[13] = biological target: T1, Casein kinase I isoform epsilon; assay: Inhibition of recombinant human full-length N-terminal GST-tagged CK1epsilon expressed in baculovirus infected Sf9 insect cells at 50 uM using casein as substrate measured after 60 mins by ADP-glo kinase assay relative to control

Myc proto-oncogene protein (Homo sapiens), sequence (P01106 whole entry, canonical isoform): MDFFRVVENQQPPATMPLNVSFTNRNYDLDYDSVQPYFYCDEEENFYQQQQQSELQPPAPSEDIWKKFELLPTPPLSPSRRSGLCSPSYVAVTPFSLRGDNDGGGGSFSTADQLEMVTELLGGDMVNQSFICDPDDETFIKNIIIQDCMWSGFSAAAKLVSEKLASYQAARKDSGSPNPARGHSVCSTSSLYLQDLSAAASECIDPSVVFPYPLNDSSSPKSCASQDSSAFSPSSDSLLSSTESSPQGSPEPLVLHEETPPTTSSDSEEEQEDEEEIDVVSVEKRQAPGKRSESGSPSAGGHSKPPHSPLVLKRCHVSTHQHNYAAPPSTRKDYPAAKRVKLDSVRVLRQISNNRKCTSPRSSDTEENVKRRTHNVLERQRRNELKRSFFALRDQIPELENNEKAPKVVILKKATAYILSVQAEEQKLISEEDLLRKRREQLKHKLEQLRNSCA
Serine/threonine-protein phosphatase 2A catalytic subunit alpha isoform (Homo sapiens), sequence (P67775 whole entry, canonical isoform): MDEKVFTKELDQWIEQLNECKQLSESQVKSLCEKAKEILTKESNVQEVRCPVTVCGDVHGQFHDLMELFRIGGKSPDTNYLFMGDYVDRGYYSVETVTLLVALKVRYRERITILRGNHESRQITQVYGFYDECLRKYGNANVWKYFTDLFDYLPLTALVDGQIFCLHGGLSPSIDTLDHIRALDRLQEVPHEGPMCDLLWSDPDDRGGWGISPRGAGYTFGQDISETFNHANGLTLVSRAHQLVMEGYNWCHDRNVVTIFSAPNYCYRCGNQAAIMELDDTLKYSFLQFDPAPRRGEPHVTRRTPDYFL

Row | Compound | pEC50 [1] | inhibition [8] | inhibition [9] | inhibition [10] | inhibition [11] | further results
1 | Nc1ncnc2c1c(COc1cccc(Cl)c1)nn2C1CCOCC1 | 8.13 |  |  |  |  | inhibition [2]: Active; inhibition [3]: Active; inhibition [4]: inactive; inhibition [5]: Active; inhibition [6]: Active
2 | COC[C@@H]([C@H](O)[C@H](O)C(=O)NCC[C@H](C)c1nc(/C=C/C[C@@H]2O[C@]3(C[C@@H](O)[C@@H]2C)O[C@H]([C@H](C[C@H](O)[C@H](C)[C@H](O)[C@H](C)/C=C(C)/C(C)=C/C=C/C(C)=C\C#N)OC)[C@H](OP(=O)(O)O)C3(C)C)co1)N(C)C |  |  |  |  |  | inhibition [7]: Dose-Dependent Effect
3 | CC(C)C[C@H](NC(=O)[C@H](CCc1ccccc1)NC(=O)CN1CCOCC1)C(=O)N[C@@H](Cc1ccccc1)C(=O)N[C@@H](CC(C)C)C(=O)[C@@]1(C)CO1 |  | inactive | inactive | inactive | inactive | 
4 | CC(C)C[C@H](NC(=O)[C@H](Cc1ccccc1)NC(=O)c1cnccn1)B(O)O |  | inactive | inactive | inactive | inactive | 
5 | CC(C)Oc1ccc(-c2nn([C@@H](C)c3nc4cccc(F)c4c(=O)n3-c3ccccc3)c3ncnc(N)c23)cc1F | 5.03 |  |  |  |  | inhibition [12]: Active
6 | CC[C@@H](c1nc2cccc(F)c2c(=O)n1-c1ccccc1)n1nc(-c2ccc(OC(C)C)c(F)c2)c2c(N)ncnc21 | 4.09 |  |  |  |  | inhibition [13]: < 50%
